Experiments:
monoarthritis = test: Monoarthritis chronic pain model (complete Freund's adjuvant), paw pressure test; assay type: in vivo, Sprague-Dawley rats; settings: PTX administered for 10 days, effect up to 21 days
Protocol: Sprague-Dawley rats weighing approximately 100 g were used. This model was described by Butler (Butler et al, 1992). He was inoculated into the right paw (tibio-tarsal fourth) of rats with 50 uL of complete Freund's adjuvant containing 300 ug Mycobacterium butiricum. This injection produces a localized arthritis syndrome and found to be stable between four and six post-inoculation, weeks During this period there is an establishment of neurogenic pain and hyperalgesia, and this pain is held for more than two months period. Control rats were injected with the vehicle only Mycobacterium butiricum.
All doses of nanoparticles or free drugs were administered by intrathecal (it) in a maximum volume of […], dissolved in artificial cerebrospinal fluid (LCA: 1.3 mm CaCl2, KCl 2.8 mm, 0.9 mm MgCl2, NaHCO3 20 mM, 2.5 mM Na 2 HPO 7H2O, 125 mM NaCl). The injection i.t. it involves administration of the drug into the subarachnoid space between lumbar vertebrae L5 and L6 (Mestre et al, 1994) using a Hamilton syringe with a needle 26Gx1/2”. The entrance to the subarachnoid space evidenced by a slight movement in the tail of the rat, due to the mechanical stimulation of the needle to penetrate the spinal cord meninges. […]

[1] = test system: primary cultures of activated microglia; settings: LPS-activated microglia treated with propentofylline; cited from earlier work

| Compound | effect on threshold of pain, pressure test of the leg (monoarthritis) | production of tumor necrosis factor (TNF), IL-1β and radicals oxygen [1] |
| --- | --- | --- |
| CC(=O)CCCCn1c(=O)c2c(ncn2C)n(C)c1=O [PTX, 3,7-dimethyl-1-(5-oxo-hexyl)xanthine] | lowers the threshold of pain |  |
| CCCn1cnc2c1c(=O)n(CCCCC(C)=O)c(=O)n2C [propentofylline, 3-methyl-1-(5-oxo-hexyl)-7-propylxanthine] |  | inhibition |

Source: patent US20150283095A1, “NANOPARTICLES WITH BIODEGRADABLE AND BIOCOMPATIBLE POLYMER PLGA, LOADED WITH THE DRUG FOR HUMAN USE PENTOXIFYLLINE” (UNIVERSIDAD DE SANTIAGO DE CHILE, priority 2012, published 2015)
